Experimental data reported in US10266567B2, “Peptides and compositions comprising same and uses thereof in the treatment of diseases” (Ariel-University Research and Development Company Ltd., priority 2015, dated 2019).
Entries after “also recorded” stand apart in the source; their conditions may differ. Bridge positions count the residues as written; N and C are the ends. Ends that are not written are not given here.

Columns and labels:
[1] = Elevated Plus Maze (EPM) test in metastatic melanoma mice; type: in vivo; details: 0.3 mg/kg chronic, vs control, p<0.01
Method: The EPM apparatus comprises two closed (10 cm×45 cm×40 cm) and two open (10 cm×45 cm) arms that extend from a common central platform (10 cm×10 cm). The black apparatus is elevated to a height of 60 cm above floor level. The tests were conducted at the same time of the day (10.00-12.00 h) during the period of illumination in the mice's colony room. For habituation, all animals were placed in the experimental room one hour prior to the test. Each animal was placed at the center of the maze, facing one of the closed arms. Each mouse spent a five minute session in the EPM, during which the number of entries into open and closed arms as well as time spent in the open and closed arms were video scored.

[2] = system: B16-F10 melanoma cells; test: Metastatic melanoma mice model using B16F10 cells; type: in vivo, C57BL/6 mice
Method: Metastatic melanoma mice model using B16F10 cells. Murine B16F10 cells grown in RPMI were harvested by trypsinization and washed with PBS. The cells were counted and resuspended in PBS to final concentrations of 1.0×10^5 cells/mL and were maintained at 4° C. for immediate i.v inoculation into the tail vein of C57BL6 male mice (Harlan Labs). Next day, following tumor cell inoculation, these animals received i.p. injection of ALOS peptide or saline. Injections were performed daily throughout the working week. Mice were weighed daily on the day of injection.
For analysis of the peptides' effect on melanoma nodule formation all mice were sacrificed 18 days following the i.v. injection. Organs were dissected analyzed visually. The lungs of sacrificed mice were rinsed in saline and fixed with Bouin's solution. The total number of visible nodules on the lung surface per animal was counted.
For analysis of the peptides' effect on survival of melanoma cell-inoculated mice, animals were observed several times a week for signs of lethargy such as weight loss, hunched position and epilepsy. In order to lessen suffering, when these symptoms occurred, mice were euthanized with cervical dislocation after CO2 anesthesia. Survival time was recorded and long-term survivors were defined as animals surviving longer than 3 times the median survival of non-treated animals.
ALOS3 and ALOS4 block melanoma growth in metastatic melanoma mice model: An important clinical problem of malignant tumors is that lethality is mostly attributed to metastasis of the primary neoplastic cells. Complete eradication of the primary malignant cells is usually limited, due to location of the tumor, spread to distant organs and severe side effects caused by treatment. The effects of ALOS 3 and 4 on artificial metastasis, using highly metastatic melanoma B16-F10 cells was studied. 5×10^4 cells of B16-F10/0.2 ml/mouse were injected into the tail vein of 8 weeks old C57BL/6 mice. […] 18 days later the mice were sacrificed, lungs were dissected and the total number of visible nodules on the lung surface was counted. […]

CAPSPSRLC (disulfide 1-9 (inferred)) [ALOS3]
EPM performance (ratio of time spent in open arms to total time), anxiolytic effect [1]: significantly increased the performance of the mice; also recorded: exerted anxiolytic effect | Survival of metastatic melanoma mice ([2]; 0.3 mg/kg daily i.p., 5×10^3 B16-F10 cells i.v., vs saline): significantly increased the survival; also recorded: significantly delayed animals' death | Number of metastatic melanoma sites (visible nodules) in the lungs ([2]; 0.3 mg/kg daily i.p., 5×10^4 B16-F10 cells i.v., day 18): significantly blocked the number of metastatic melanoma sites in the lungs | Animals' weight during treatment course ([2]; metastatic melanoma mice, ALOS vs saline): did not show weight loss
